Assay results from ChEMBL document CHEMBL5050844 (2019).

Assays:
[1] = target: E3 ubiquitin-protein ligase CBL-B (Homo sapiens, UniProt Q13191); assay: Inhibition of N-terminal Avi-tagged human CBL-B (36 to 427 residues) incubated with 60 nM Src kinase for 1.5 hrs followed by incubation with fluorescently labeled UbcH5B-Ub for 1 hr and measured by TR-FRET assay; assay type: single protein
[2] = Induction of anti-CD3/CD28 antibodies-stimulated human T cell activation at 4 uM assessed fold increase in IL-2 secretion measured by ELISA assay; assay type: functional, T cell line
[3] = Induction of anti-CD3/CD28 antibodies-stimulated human T cell activation at 1 uM assessed fold increase in IL-2 secretion measured by ELISA assay; assay type: functional, T cell line
[4] = Induction of anti-CD3/CD28 antibodies-stimulated human T cell activation at 0.3 uM assessed fold increase in IL-2 secretion measured by ELISA assay; assay type: functional, T cell line
[5] = Induction of anti-CD3 antibodies-stimulated human T cell activation at 8 uM assessed fold increase in IL-2 secretion measured by ELISA assay; assay type: functional, T cell line; note: reference of the scale not given here
[6] = Induction of anti-CD3 antibodies-stimulated human T cell activation at 1 uM assessed fold increase in IL-2 secretion measured by ELISA assay; assay type: functional, T cell line; note: reference of the scale not given here
[7] = Induction of anti-CD3/CD28 antibodies-stimulated human T cell activation at 4 uM assessed fold increase in CD25 expression measured by ELISA assay; assay type: functional, T cell line
[8] = Induction of anti-CD3/CD28 antibodies-stimulated human T cell activation at 1 uM assessed fold increase in CD25 expression measured by ELISA assay; assay type: functional, T cell line
[9] = Induction of anti-CD3/CD28 antibodies-stimulated human T cell activation at 0.3 uM assessed fold increase in CD25 expression measured by ELISA assay; assay type: functional, T cell line
[10] = Induction of anti-CD3 antibodies-stimulated human T cell activation at 8 uM assessed fold increase in CD25 expression measured by ELISA assay; assay type: functional, T cell line; note: reference of the scale not given here
[11] = Induction of anti-CD3 antibodies-stimulated human T cell activation at 1 uM assessed fold increase in CD25 expression measured by ELISA assay; assay type: functional, T cell line; note: reference of the scale not given here

Chain of E3 ubiquitin-protein ligase CBL-B (Q13191 whole entry, the tested form may be a part): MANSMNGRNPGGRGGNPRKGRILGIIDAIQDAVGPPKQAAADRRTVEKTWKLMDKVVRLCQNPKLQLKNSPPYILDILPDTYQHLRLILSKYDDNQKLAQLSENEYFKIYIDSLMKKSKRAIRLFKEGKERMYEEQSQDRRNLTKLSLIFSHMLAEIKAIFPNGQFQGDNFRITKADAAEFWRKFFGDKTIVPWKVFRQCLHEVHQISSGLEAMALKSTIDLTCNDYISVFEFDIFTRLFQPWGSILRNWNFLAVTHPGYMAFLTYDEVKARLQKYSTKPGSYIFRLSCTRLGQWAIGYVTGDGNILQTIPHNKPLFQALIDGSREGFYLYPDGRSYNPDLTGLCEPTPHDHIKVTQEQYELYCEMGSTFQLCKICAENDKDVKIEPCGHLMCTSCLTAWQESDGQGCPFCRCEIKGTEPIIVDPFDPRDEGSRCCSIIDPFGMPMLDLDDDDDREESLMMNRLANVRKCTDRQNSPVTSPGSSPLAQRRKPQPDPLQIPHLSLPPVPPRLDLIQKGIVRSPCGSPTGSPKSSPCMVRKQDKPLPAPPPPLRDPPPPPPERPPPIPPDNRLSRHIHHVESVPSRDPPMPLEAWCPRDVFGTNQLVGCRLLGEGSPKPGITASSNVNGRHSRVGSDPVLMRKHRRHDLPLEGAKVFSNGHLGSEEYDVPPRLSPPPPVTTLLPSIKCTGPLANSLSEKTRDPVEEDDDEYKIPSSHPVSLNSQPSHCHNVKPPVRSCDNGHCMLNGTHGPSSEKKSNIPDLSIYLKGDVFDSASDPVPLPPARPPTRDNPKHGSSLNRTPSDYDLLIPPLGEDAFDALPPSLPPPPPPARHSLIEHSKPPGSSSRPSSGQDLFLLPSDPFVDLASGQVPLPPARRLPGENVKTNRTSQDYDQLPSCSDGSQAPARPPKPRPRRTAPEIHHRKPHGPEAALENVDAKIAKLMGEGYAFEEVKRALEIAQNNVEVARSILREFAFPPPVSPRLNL

| Compound | IC50 [1] [nM] | fold change (FC) [2] | fold change (FC) [3] | fold change (FC) [4] | fold change (FC) [5] | fold change (FC) [6] | fold change (FC) [7] | fold change (FC) [8] | fold change (FC) [9] | fold change (FC) [10] | fold change (FC) [11] |
| --- | --- | --- | --- | --- | --- | --- | --- | --- | --- | --- | --- |
| Cn1cnnc1CC1(c2cccc(N3Cc4c(cc(CN5CC(C#N)C5)cc4C(F)(F)F)C3=O)c2)COC1 | < 100 | >=7.5 | 5 | 2.51 | >=0.201 | 0.151 | 1.31 | 1.01 | 1.01 | >=1.001 | 0.801 |
| Cc1cc(C(=O)Nc2cccc([C@H](C)Cc3nncn3C)c2)nc(C(F)(F)F)n1 | < 100 | >=7.5 | >=7.5 | 2.51 | >=0.201 | >=0.201 | >=1.76 | 1.51 | 1.01 | >=1.001 | 0.801 |
| Cn1cnnc1CC1(c2cccc(NC(=O)c3cc(C4CC4)nc(C(F)(F)F)n3)c2)COC1 | < 100 | >=7.5 | >=7.5 | 2.51 | >=0.201 | 0.151 | 1.51 | 1.31 | 1.01 | >=1.001 | 0.801 |
| C[C@H]1CN(C)CCN1c1cc2c(c(C(F)(F)F)c1)CN(c1cccc([C@@](C)(F)C(F)(F)c3nncn3C)c1)C2=O | < 100 | >=7.5 | 5 | 1.01 | >=0.201 | 0.101 | 1.31 | 1.01 | 1.01 | >=1.001 | >=1.001 |
| Cn1cnnc1CC(C)(C)c1cccc(N2Cc3c(cccc3C(F)(F)F)C2=O)c1 | < 100 | >=7.5 | 2.51 | 1.01 | >=0.201 | >=0.201 | 1.51 | 1.01 | 1.01 | >=1.001 | 0.801 |
| C[C@H](Cc1nncn1C)c1cc(OCC(F)F)nc(N2Cc3c(cccc3C(F)(F)F)C2=O)c1 | < 100 | >=7.5 | 2.51 | 2.51 | >=0.201 | 0.151 | 1.31 | 1.01 | 1.01 | >=1.001 | 0.801 |
| C[C@H](Sc1nncn1C)c1cccc(NC(=O)c2ccnc(C3CC3)n2)c1 | < 100 | 5 | 2.51 | <=1 | 0.051 | <=0.05 | 1.31 | 1.01 | 1.01 | >=1.001 | 0.601 |
| Cc1cc(C(=O)Nc2cccc(C3(Cc4nncn4C)COC3)c2)nc(C2CC2)c1 | < 100 | >=7.5 | >=7.5 | 5 | >=0.201 | >=0.201 | 1.51 | 1.31 | 1.31 | >=1.001 | >=1.001 |
| Cn1cnnc1CC(C)(C)c1cccc(NC(=O)c2cccc(C(F)(F)F)n2)c1 | < 100 | >=7.5 | 2.51 | 1.01 | >=0.201 | >=0.201 | 1.31 | 1.01 | 1.01 | >=1.001 | 0.801 |
| C[C@H](Sc1nncn1C)c1cccc(NC(=O)c2cc(C3CC3)cc(C(F)(F)F)n2)c1 | < 100 | 2.51 | 1.01 | 1.01 | 0.101 | <=0.05 | 1.01 | 1.01 | 1.01 | >=1.001 | 0.801 |
| C[C@H](Cc1nncn1C)c1cccc(NC(=O)c2cccc(C(F)(F)F)n2)c1 | < 100 | >=7.5 | 5 | 2.51 | >=0.201 | >=0.201 | >=1.76 | >=1.76 | >=1.76 | >=1.001 | >=1.001 |
| C[C@H](Cc1nncn1C)c1cccc(NC(=O)c2cccc(C(C)(C)C)n2)c1 | < 100 | 2.51 | 2.51 | 1.01 | >=0.201 | 0.051 | 1.01 | 1.01 | 1.01 | >=1.001 | 0.801 |
| Cn1cnnc1C(F)(F)[C@](C)(F)c1cccc(N2Cc3c(cc(CN4CC(C#N)C4)cc3C(F)(F)F)C2=O)c1 | – | 5 | 2.51 | 1.01 | 0.101 | 0.051 | 1.01 | 1.01 | 1.01 | >=1.001 | 0.801 |
| C[C@H](Sc1nncn1C)c1cccc(NC(=O)c2cc(C(F)(F)F)cc(C3CC3)n2)c1 | – | 1.01 | <=1 | <=1 | <=0.05 | <=0.05 | 1.31 | 1.01 | 1.01 | <=0.6 | <=0.6 |
| CC(C)c1cccc(C(=O)Nc2cccc([C@H](C)Sc3nncn3C)c2)n1 | – | >=7.5 | 2.51 | 2.51 | <=0.05 | <=0.05 | 1.01 | 1.01 | 1.01 | 0.801 | <=0.6 |
| C[C@H](Cc1nncn1C)c1cc(NC2COC2)cc(N2Cc3c(cccc3C(F)(F)F)C2=O)c1 | – | 1.01 | 1.01 | <=1 | 0.051 | 0.051 | 1.01 | 1.01 | 1.01 | 0.801 | 0.601 |
| Cn1cnnc1[C@@H](F)[C@](C)(F)c1cccc(N2Cc3c(cccc3C(F)(F)F)C2=O)c1 (single isomer, unassigned) | – | 1.01 | 1.01 | 1.01 | 0.051 | <=0.05 | 1.01 | 1.01 | 1.01 | 0.601 | <=0.6 |
| C[C@H](Sc1nncn1C)c1ccnc(NC(=O)c2cc(C3CC3)cc(C(F)(F)F)n2)c1 | – | 1.01 | 1.01 | 1.01 | <=0.05 | <=0.05 | 1.01 | <=1 | <=1 | 0.801 | 0.601 |
| C[C@H](Cc1nncn1C)c1cccc(N2Cc3c(cc(C4CC4)nc3C3CC3)C2=O)c1 | – | 5 | 1.01 | 1.01 | >=0.201 | 0.051 | >=1.76 | 1.01 | 1.01 | 0.801 | 0.601 |
| CC1CCc2c1n[nH]c2C(=O)Nc1cccc([C@H](C)Cc2nncn2C)c1 (some centres not stated) | – | 5 | 2.51 | 1.01 | >=0.201 | 0.101 | 1.01 | <=1 | <=1 | >=1.001 | 0.601 |
| C[C@H](Cc1nncn1C)c1cccc(NC(=O)c2cnn3cccnc23)c1 | – | 1.01 | 1.01 | 1.01 | 0.051 | 0.051 | 1.01 | <=1 | <=1 | 0.601 | 0.601 |
